Source: patent US11767303B2, “Compounds and methods for inhibiting viral replication and methods of treating and preventing flaviviral infections” (priority 2020, dated 2023)
Read-outs that look alike come from different tables or passages of the source.

What was measured:
[1] = biological target: T1, DENV2 NS2B-NS3 interaction (Dengue virus type 2, UniProt P29990); experiment: Split luciferase complementation (SLC) NS2B-NS3 interaction assay; type: binding, Dengue virus serotype 2; conditions: concentration reducing 50% of SLC signal; read-out: IC50-SLC-(DN2)
T1 construct: GST (N); made in house
T1 sequence (P29990 1476-1654): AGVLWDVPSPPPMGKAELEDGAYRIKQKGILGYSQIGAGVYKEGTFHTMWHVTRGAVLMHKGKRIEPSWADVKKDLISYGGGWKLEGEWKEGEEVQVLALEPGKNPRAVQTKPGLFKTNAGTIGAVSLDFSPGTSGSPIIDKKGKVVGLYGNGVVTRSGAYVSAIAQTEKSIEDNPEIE

DENV2 NS2B-NS3 protease = biological target: T2, DENV2 NS2B-NS3 protease (Dengue virus type 2, UniProt P29990); experiment: Protease inhibition assay (FRET peptide substrate); type: biochemical, Dengue virus serotype 2
T2 construct: made in house
T2 sequence (P29990 1476-1654): as above
Procedure: Protease Inhibition Assay. The protease inhibition assay was performed using the refolded DENV2 NS3 fusion protein (50 nM) and a fluorescence resonance energy transfer (FRET) peptide substrate (100 μM) (Abz-RRRRSAG-nTyr (NeoBiolab)), as described previously. […] 13:e1006411 (2017); and Lang et al., “Analysis of Protein-Protein Interactions by Split Luciferase Complementation Assay,” Curr. Protoc. Toxicol. 82:e (2019), all of which are hereby incorporated by reference in their entirety. Substrate cleavage was monitored at excitation/emission wavelengths of 360 nm/420 nm (Abz substrate) by a BioTek Flx800. The rate of increase in relative fluorescence unit (RFU) over time was calculated in the linear range and normalized as a percent of the DMSO control. The IC50/CC50/EC50 was determined by fitting the dose-responsive curve with a non-linear regression function using the GraphPad Prism 8 (San Diego, Calif.). All experiments were performed in triplicates.
Next, the inhibition efficacy of these positive derivatives were evaluated against the viral NS2B-NS3 protease function as previously described. […] Previously, two versions of the NS3 protease were generated, the NS3 protease domain refolded from inclusion bodies and a soluble version of the NS3 protease domain fused to maltose-binding protein (MBP). […]

DENV2 = experiment: Viral titer (plaque) reduction assay, DENV2 in A549 cells; type: cell-based, Dengue virus serotype 2
Procedure: Viral Titer Reduction Assay. A viral titer reduction assay was used to determine the compounds' effect on DENV2 and ZIKV strains, as described previously. […] Human A549 lung carcinoma cells and human primary neural progenitor cells were used, as described previously. […] 13:e1006411 (2017), which are hereby incorporated by reference in their entirety. All experiments were performed in triplicates.
A viral plaque reduction assay was performed next to evaluate the antiviral efficacy of these derivatives. Human lung carcinoma A549 cells were infected with DENV2 in the presence of a concentration series of derivatives or a dimethyl sulfoxide (DMSO) control, and viral titers were measured at 48 hrs post-infection, as described previously.

ZIKV = experiment: Viral titer reduction assay, ZIKV in A549 cells; type: cell-based, Zika virus
Procedure: Viral Titer Reduction Assay. A viral titer reduction assay was used to determine the compounds' effect on DENV2 and ZIKV strains, as described previously. […] Human A549 lung carcinoma cells and human primary neural progenitor cells were used, as described previously. […] All experiments were performed in triplicates.

[2] = WST-8 cell proliferation cytotoxicity assay; type: cell-based, human; conditions: human
Procedure: (§1) Cytotoxicity Assay. […] All experiments were performed in triplicates.
(§2) To address this concern, next the compound cytotoxicity CC50 was measured using a WST-8 cell proliferation assay, as described previously.

Aqueous solubility = type: physicochemical
A549 cells = experiment: WST-8 cell proliferation cytotoxicity assay; type: cell-based, human; conditions: Table 4, preliminary SAR, A549 cells; read-out: CC50
Procedure: as §1, §2

[3] = not told
[4] = Pharmacokinetics in B6 mice after oral gavage
Source text: Pharmacokinetics. […] Fan et al., “Contributions of Hepatic and Intestinal Metabolism to the Disposition of Niclosamide, a Repurposed Drug with Poor Bioavailability,” Drug Metab. Dispos. 47:756-763 (2019), which is hereby incorporated by reference in its entirety. […] Student's t-test was used. P values<0.05 were considered statistically significant.

DENV2 replicon = DENV2 replicon assay in BHK-21 cells (Renilla luciferase); type: cell-based, Dengue virus serotype 2; conditions: Dengue virus, BHK-21 replicon cells, 48 hours, read-out: EC50-DN2 (DENV2 replicon)
Procedure: DENV2 Replicon Assay. […] The cells were incubated at 37° C. in a humidified incubator with 5% CO2 for hrs in a 100 μl medium containing Minimal Essential Medium (MEM) supplemented with 10% fetal bovine serum (FBS), 100 I.U./ml penicillin, 100 g/ml streptomycin, and 300 μg/ml G418. Upon 24 hrs incubation, culture medium was discarded. Fresh culture medium of 100 μl with a concentration series of compounds or DMSO control was added to the cells in triplicates. The culture was further incubated for 48 hours. The cells were then washed twice with 100 μl phosphate-buffered saline (PBS), followed by addition of 25 μl of a lysis buffer containing 1×PBS and 1% Triton X-100. The mixture was incubated at room temperature with gentle shaking (50 rpm) for 30 minutes. Assay buffer (125 μl) containing 1×PBS, 0.05% (3-((3-cholamidopropyl) dimethylammonio)-1-propanesulfonate) (CHAPS), and 0.1% BSA was then added to each well. In the meantime, a fresh 4× working substrate coelenterazine was prepared by diluting 1 μl of stock coelenterazine (2.4 mM) dissolved in ethanol into 10 ml assay buffer (10,000-fold dilution). […] The luminescence was recorded immediately using the Veritas luminometer. The luminescence data was normalized to DMSO control. The EC50 was determined by nonlinear regression fitting of normalized experimental data in GraphPad Prism 8.0 (San Diego, Calif.). […]

in vitro = conditions: not told, Perme. (cell permeability)
[5] = refolded NS3, read-out: IC50-pro (DN2)
[6] = Dengue virus, DENV2, A549 cells, 48 hrs post-infection, read-out: EC50-DN2 (A549)
[7] = Zika virus, A549, read-out: EC50-ZK (A549)
[8] = A549 cells, read-out: CC50 (A549)
[9] = Dengue virus, DENV2, Table 4, preliminary SAR, A549 cells, read-out: EC50-DN2
[10] = Zika virus, A549, read-out: EC50-ZK
[11] = Table 4, preliminary SAR, read-out: IC50-pro(DN2)
[12] = Table 4, preliminary SAR, A549 cells, read-out: EC50-DN2
[13] = Table 4, preliminary SAR, A549 cells, read-out: EC50-ZK
[14] = female, B6, mouse, in vivo, po, 40 mg/kg

SMILES | IC50 [1] [µM] | IC50 (DENV2 NS2B-NS3 protease; [5]) [µM] | EC50 (DENV2; [6]) [nM] | EC50 (ZIKV; [7]) [nM] | CC50 [2, 8] [µM] | EC50 (DENV2; [9]) [nM] | EC50 (ZIKV; [10]) [nM] | logP (LogP) | also measured
O=C(Nc1ccc([N+](=O)[O-])cc1Cl)c1cc(Cl)ccc1OCCN1CCOCC1 [HJC0114] | 18.4 | 33.6 | > 30000 | > 30000 | > 200 | – | – | – | –
O=C(Nc1ccc([N+](=O)[O-])cc1Cl)c1cc(Cl)ccc1OC1CCNCC1 [HJC0125] | 16.3 | 44.5 | 210 | 150 | 50.2 | – | – | – | –
Nc1ccc(NC(=O)c2cc(Cl)ccc2O)c(Cl)c1 [HJC0129] | 9.6 | 11.3 | > 30000 | > 30000 | 176 | > 30000 | > 30000 | 2.76 | –
CC(=O)Nc1ccc(NC(=O)c2cc(Cl)ccc2O)c(Cl)c1 [HJC0140] | – | – | > 30000 | > 30000 | – | > 30000 | > 30000 | 2.47 | –
O=C(Nc1ccc2c(c1)S(=O)(=O)C=C2)c1cc(Cl)ccc1O [HJC0149] | 18.6 | 20.3 | 900 | 1100 | 241 | 900 | 1100 | 2.41 | –
NCCCOc1ccc(Cl)cc1C(=O)Nc1ccc([N+](=O)[O-])cc1Cl [HJC0308] | 4.9 | 39.7 | 1400 | 6200 | 17.7 | – | – | – | –
CN1CCN(CCOc2ccc(Cl)cc2C(=O)Nc2ccc([N+](=O)[O-])cc2Cl)CC1 [HJC0365] | 13.2 | > 60 | 6400 | 6000 | 177 | – | – | – | –
CN1CCC(Oc2ccc(Cl)cc2C(=O)Nc2ccc([N+](=O)[O-])cc2Cl)CC1 [HJC0381] | 10.8 | 25.9 | 1200 | 3900 | 91.1 | 1200 | 3900 | 2.38 | aqueous solubility (Aqueous solubility): significantly improves the aqueous solubility
CC[C@H](N)COc1ccc(Cl)cc1C(=O)Nc1ccc([N+](=O)[O-])cc1Cl [HJC0390] | 6 | 46.5 | 430 | < 100 | 30.1 | – | – | – | –
NCCCCOc1ccc(Cl)cc1C(=O)Nc1ccc([N+](=O)[O-])cc1Cl [HJC0431] | 3.1 | 34 | 2200 | 360 | 28.4 | 2200 | 360 | 3.9 | aqueous solubility (Aqueous solubility): significantly improves the aqueous solubility
O=C(NC(Cc1ccccc1)C(=O)Nc1ccc([N+](=O)[O-])cc1Cl)c1cc(Cl)ccc1O (stereo not drawn) [JMX0285] | – | – | – | – | – | – | – | 3.84 | IC50 (DENV2 NS2B-NS3 protease; [11]): 5.7 µM; EC50 (DENV2; [12]): 480 nM; EC50 (ZIKV; [13]): 300 nM; CC50 (A549 cells): 16.5 µM; Perme. (cell permeability) [3]: 2.5e-07 cm/s
O=C(Nc1ccc(C(F)(F)F)cc1Cl)c1cc(Cl)ccc1O [JMX0308] | – | – | – | – | – | – | – | 4.49 | EC50 (DENV2; [12]): 90 nM; EC50 (ZIKV; [13]): 120 nM; Perme. (cell permeability) [3]: 2.7e-07 cm/s
O=C(Nc1cc(F)cc(C(F)(F)F)c1)c1cccc([N+](=O)[O-])c1O [JMX0317] | – | – | – | – | – | – | – | 3.26 | IC50 (DENV2 NS2B-NS3 protease; [11]): 8.4 µM; EC50 (DENV2; [12]): 200 nM; EC50 (ZIKV; [13]): 120 nM; CC50 (A549 cells): 20.4 µM; Perme. (cell permeability) [3]: 2.9e-06 cm/s
CC(=O)Oc1ccccc1C(=O)Nc1ncc([N+](=O)[O-])s1 [NTZ, nitazoxanide, reference compound] | – | – | – | – | – | 300 | – | – | EC50 (ZIKV; Zika virus, Table 4, preliminary SAR, A549 cells, read-out: EC50-ZK): 1500 nM; CC50 [2]: 77 µM; logP (physchem): 2.14
O=C(Nc1ccc([N+](=O)[O-])cc1Cl)c1cc(Cl)ccc1O [Niclosamide, reference compound] | 2 | – | – | 480 | – | – | 480 | – | EC50 (DENV2; Dengue virus, DENV2, A549, 48 h, read-out: EC50-DN2 (A549)): 550 nM; CC50 (A549 cells): 4.8 µM; T1/2 ± S.D. ([4]; B6 mice, single oral dose 40 mg/kg, plasma): 4.6 ± 1.0 h; AUC0→∞ ± S.D. [4, 14]: 3.5 ± 0.8; Cmax [4, 14]: 600 nM; Tmax ± S.D. [4, 14]: 42 ± 24 min; EC50 (DENV2 replicon): 2000 nM; logP (physchem): 3.38; Papp (in vitro): 0.25 ×10⁻⁶ cm/s
